Patent US7396554B2, “Antioxidant sesame extract” (Council of Scientific & Industrial Research, priority 2002, dated 2008)

Assays:
rats = settings: Nobuyuki Ito 1982, cited via U.S. Pat. No. 5,043,100; cited from earlier work
[1] = DPPH radical quenching / free radical scavenging test; type: biochemical; settings: Conc. of antioxidant 20 μM
Protocol: The radical quenching efficiency of the extract was also tested by widely reported standard methods like di-phenyl picryl hydrazyl (DPPH) radical according to the methods of W. Brand Williams, M. E. Cuvelier and C. Berset, Lebesm.-Wiss.

[2] = DSC oxidative stability of soybean oil, isothermal 150° C. under oxygen flow; settings: soybean oil stored one week at 60° C.; antioxidant 200 mg per Kg of oil
Text: DSC experiments: Differential Scanning Calorimeter. The Mettler Toledo instrument used for carrying out the studies, is configured to follow oxidative stability of vegetable oils at a desired higher temperature under oxygen flow. […] With the help of an inbuilt program of the instrument, the induction period in ‘time-units’ could be calculated. This is indicated in the diagram as ‘onset’ time. Longer ‘onset’ time indicates better protection. […] DSC profiles of purified sesame extracts have been included here. In FIG. 6, the oxidative stability of soybean oil stored at 60° C. for 7 days has been depicted. (The storage study continued for one month. The extent of protection as measured in DSC was studied here.). Each experiment such as Control alone, (soybean oil+BHT), (oil+TBHQ), (oil+Sesame extract at 10 ppm, 50 ppm, 200 ppm) etc were carried out separately. For comparison sake, the different profiles have been overlaid in the same figure. In FIG. 6, the concentrations of BHT and TBHQ are 200 mg per Kg. of oil. For comparison, the profile of oil containing sesame extract at 50 ppm is also depicted in the overlaid diagram. […]

[3] = DSC oxidative stability of safflower oil, isothermal 150° C. under oxygen flow; settings: fresh safflower oil; antioxidant 200 mg per Kg of oil
Text: DSC experiments: Differential Scanning Calorimeter. The Mettler Toledo instrument used for carrying out the studies, is configured to follow oxidative stability of vegetable oils at a desired higher temperature under oxygen flow. […] With the help of an inbuilt program of the instrument, the induction period in ‘time-units’ could be calculated. This is indicated in the diagram as ‘onset’ time. Longer ‘onset’ time indicates better protection. […] DSC profiles of purified sesame extracts have been included here. As explained elsewhere, the Figure represents overlaid DSC profiles of safflower oil containing synthetic and sesame antioxidants at few select concentrations. The onset time has been recorded in the printout of the profile. The oxidative stability of vegetable oils containing synthetic antioxidants (BHT and TBHQ at 50-200 ppm) and sesame extract at different levels 3 to 1000 ppm were also tested in the Differential Scanning Calorimeter (Mettler Toledo, model 821) under flow of oxygen (40 ml/min.). The heating regime followed was isothermal at 150° C. and from the curves obtained (FIGS. 6, 7), the ‘onset-time’ of oxidative changes under identical conditions could be found out by making use of an inbuilt program of the instrument, the induction period represented by the onset time, can be correlated with the onset of rancidity.

Row | Compound | carcinogenicity (rats) | Free radical Scavenging Effect after 30 min. [1] | DSC onset time [2] | DSC onset time [3]
1 | COc1ccc(O)c(C(C)(C)C)c1 [BHA, Butylated Hydroxy Anisole] | carcinogenic in rats | – | – | –
2 | Cc1cc(C(C)(C)C)c(O)c(C(C)(C)C)c1 [BHT, Butylated Hydroxy Toluene] | – | 81.61 | 7.30 min | 7.23 min
3 | O=C(OC[C@H]1O[C@@H](OC(=O)c2cc(O)c(O)c(OC(=O)c3cc(O)c(O)c(O)c3)c2)[C@H](OC(=O)c2cc(O)c(O)c(OC(=O)c3cc(O)c(O)c(O)c3)c2)[C@@H](OC(=O)c2cc(O)c(O)c(OC(=O)c3cc(O)c(O)c(O)c3)c2)[C@@H]1OC(=O)c1cc(O)c(O)c(OC(=O)c2cc(O)c(O)c(O)c2)c1)c1cc(O)c(O)c(OC(=O)c2cc(O)c(O)c(O)c2)c1 [Tannic Acid] | – | 98.88 | – | –
4 | CC(C)(C)c1cc(O)ccc1O [TBHQ, tert-Butyl Hydro Quinone] | – | 98.88 | 20.48 min | 10.01 min
5 | Catechin | – | 98.51 | – | –
